Measurements reported in patent US20170305943A1, “COMPOUNDS FOR THE TREATMENT OF BACTERIAL INFECTIONS” (priority 2014, published 2017).
≈ marks a conversion by molar mass, not a printed value.

Assays:
Test in all cases: Bacterial Assay: Determination of Antibacterial Activity (MIC, broth microdilution or agar dilution)
Format in all cases: cell-based
[1] = test system: Clostridium difficile (Isolate ID BI-9); conditions: Clostridioides difficile, 48 h, read-out: MIC (μg/mL) C. difficile (B-I9)
Outline: (§1)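 MICs were set by CLSI broth microdilution or agar dilution for anaerobes, read visually after 48 hours at 37° C. under anaerobic gas packs. Medium was reinforced clostridial medium with 0.1% defibrinated horse blood; values are binned as A ≦1.01, B >1.0-4.0, C >4.0-16 μg/mL.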

[2] = test system: Clostridium difficile (Isolate ID ATCC 9689); conditions: Clostridioides difficile, ATCC9689, 48 h, read-out: C. difficile MIC Activity Range
Outline: as §1

[3] = test system: Clostridium difficile (Isolate ID 027-01); conditions: Clostridioides difficile, 48 h, read-out: MIC (μg/mL) C. difficile (027-01)
Outline: as §1

Row | Compound | MIC [1] | MIC [2] | MIC [3]
1 | NC(=O)c1c(F)ccc(OCc2nc(-c3ccc(Cl)cc3)c(Br)o2)c1F [Compound 104, 3-{[5-bromo-4-(4-chlorophenyl)-1,3-oxazol-2-yl]methoxy}-2,6-difluorobenzamide] | 0.12 µg/mL (≈ 0.27 µM) | < 1.01 µg/mL | 0.12 µg/mL (≈ 0.27 µM)
2 | NC(=O)c1c(F)ccc(OCc2nc(-c3ccc(OC(F)(F)F)cc3)c(Br)o2)c1F [Compound 209, 3-({5-bromo-4-[4-(trifluoromethoxy)phenyl]-1,3-oxazol-2-yl}methoxy)-2,6-difluorobenzamide] | 0.25 µg/mL (≈ 0.507 µM) | < 1.01 µg/mL | 0.12 µg/mL (≈ 0.243 µM)
3 | CCCCCCCCCOc1ccc(F)c(/C(N)=N/O)c1F [Compound 106, 2,6-difluoro-N′-hydroxy-3-(nonyloxy)benzenecarboximidamide] | 0.5 µg/mL (≈ 1.59 µM) | < 1.01 µg/mL | 0.5 µg/mL (≈ 1.59 µM)
4 | NC(=O)c1c(F)ccc(OCCCCCCOc2ccc(C(F)(F)F)cc2)c1F [Compound 135, 2,6-difluoro-3-({6-[4-(trifluoromethyl)phenoxy]hexyl}oxy)benzamide] | 0.5 µg/mL (≈ 1.2 µM) | < 1.01 µg/mL | 0.5 µg/mL (≈ 1.2 µM)
5 | N/C(=N\O)c1c(F)ccc(OCc2nc(-c3ccc(Cl)cc3)ns2)c1F [Compound 21, 3-{[3-(4-chlorophenyl)-1,2,4-thiadiazol-5-yl]methoxy}-2,6-difluoro-N′-hydroxybenzene-carboximidamide] | 5 µg/mL (≈ 12.6 µM) | < 1.01 µg/mL | 5 µg/mL (≈ 12.6 µM)
6 | NC(=O)c1c(F)ccc(OCCCCOc2ccc(OC(F)(F)F)cc2)c1F [Compound 128, 2,6-difluoro-3-{4-[4-(trifluoromethoxy)phenoxy]butoxy}benzamide] | 0.12 µg/mL (≈ 0.296 µM) | < 1.01 µg/mL | 0.06 µg/mL (≈ 0.148 µM)
7 | COc1ccc(-c2csc(COc3ccc(F)c(C(N)=O)c3F)n2)cc1 [Compound 10, 2,6-difluoro-3-{[4-(4-methoxyphenyl)-1,3-thiazol-2-yl]methoxy}benzamide] | 2 µg/mL (≈ 5.31 µM) | 1 to 4 µg/mL (≈ 2.66 to 10.6 µM) | 4 µg/mL (≈ 10.6 µM)
8 | NC(=O)c1c(F)ccc(OCCCCCOc2ccc(OC(F)(F)F)cc2)c1F [Compound 131, 2,6-difluoro-3-({5-[4-(trifluoromethoxy)phenoxy]pentyl}oxy) benzamide] | 0.25 µg/mL (≈ 0.596 µM) | < 1.01 µg/mL | 0.25 µg/mL (≈ 0.596 µM)
9 | NC(=O)c1c(F)ccc(OCc2nc(C#Cc3cccc(Cl)c3)cs2)c1F [Compound 198, 3-({4-[(3-chlorophenyl)ethynyl]-1,3-thiazol-2-yl}methoxy)-2,6-difluorobenzamide] | 0.25 µg/mL (≈ 0.618 µM) | < 1.01 µg/mL | 0.12 µg/mL (≈ 0.296 µM)
10 | NC(=O)c1c(F)ccc(OCc2nc(-c3ccc(OC(F)(F)F)cc3)cs2)c1F [Compound 17, 2,6-difluoro-3-({4-[4-(trifluoromethoxy)phenyl]-1,3-thiazol-2-yl}methoxy)benzamide] | 0.25 µg/mL (≈ 0.581 µM) | < 1.01 µg/mL | 0.185 µg/mL (≈ 0.43 µM)
11 | NC(=O)c1c(F)ccc(OCCCOc2ccc(OC(F)(F)F)cc2)c1F [Compound 126, 2,6-difluoro-3-{3-[4-(trifluoromethoxy)phenoxy]propoxy}benzamide] | 0.5 µg/mL (≈ 1.28 µM) | < 1.01 µg/mL | 0.5 µg/mL (≈ 1.28 µM)
12 | NC(=O)c1c(F)ccc(OCCc2nc(-c3ccc(OC(F)(F)F)cc3)cs2)c1F [Compound 111, 2,6-difluoro-3-(2-{4-[4-(trifluoromethoxy)phenyl]-1,3-thiazol-2-yl}ethoxy)benzamide] | 0.25 µg/mL (≈ 0.563 µM) | < 1.01 µg/mL | 0.25 µg/mL (≈ 0.563 µM)
13 | CNC(=N)c1cccc(OCc2nc(-c3ccc(Cl)cc3)ns2)c1F [Compound 205, 3-{[3-(4-chlorophenyl)-1,2,4-thiadiazol-5-yl]methoxy}-2-fluoro-N-methylbenzenecarboximidamide] | 16 µg/mL (≈ 42.5 µM) | 4 to 16 µg/mL (≈ 10.6 to 42.5 µM) | 16 µg/mL (≈ 42.5 µM)
14 | NC(=O)c1c(F)ccc(OCCCCCc2ccc(C(F)(F)F)cc2)c1F [Compound 155, 2,6-difluoro-3-({5-[4-(trifluoromethyl)phenyl]pentyl}oxy)benzamide] | 0.12 µg/mL (≈ 0.31 µM) | < 1.01 µg/mL | 0.12 µg/mL (≈ 0.31 µM)
15 | NC(=O)c1c(F)ccc(OCc2ccnc(-c3ccc(Cl)cc3)n2)c1F [Compound 192, 3-{[2-(4-chlorophenyl)pyrimidin-4-yl]methoxy}-2,6-difluorobenzamide] | 1 µg/mL (≈ 2.66 µM) | < 1.01 µg/mL | 1 µg/mL (≈ 2.66 µM)
16 | NC(=O)c1c(F)ccc(OCCCCOc2ccc(C(F)(F)F)cc2)c1F [Compound 129, 2,6-difluoro-3-{4-[4 (trifluoromethyl)phenoxy]butoxy}benzamide] | 0.06 µg/mL (≈ 0.154 µM) | < 1.01 µg/mL | 0.06 µg/mL (≈ 0.154 µM)
17 | NC(=O)c1c(F)ccc(OCCCCCOc2ccc(Cl)cc2)c1F [Compound 130, 3-{[5-(4-chlorophenoxy)pentyl]oxy}-2,6-difluorobenzamide] | 0.5 µg/mL (≈ 1.35 µM) | < 1.01 µg/mL | 0.5 µg/mL (≈ 1.35 µM)

Row | Compound | MIC [1] | MIC [2] | MIC [3]
18 | CN(C)C(=O)OCC(Oc1ccc(F)c(C(N)=O)c1F)c1nc(-c2ccc(C(F)(F)F)cc2)c(Br)o1 (stereo not drawn) [Compound 49, 2-{5-bromo-4-[4-(trifluoromethyl)phenyl]-1,3-oxazol-2-yl}-2-(3-carbamoyl-2,4-difluorophenoxy)ethyl dimethylcarbamate] | 2 µg/mL (≈ 3.46 µM) | 1 to 4 µg/mL (≈ 1.73 to 6.92 µM) | 2 µg/mL (≈ 3.46 µM)
19 | CCCCCCCCCOc1cccc(C(N)=O)c1F [Compound 8, 2-fluoro-3-(nonyloxy)benzamide] | 0.25 µg/mL (≈ 0.889 µM) | < 1.01 µg/mL | 0.5 µg/mL (≈ 1.78 µM)
20 | NC(=O)c1c(F)ccc(OCc2nc(-c3ccc(OC(F)(F)F)cc3)c(C(F)(F)F)o2)c1F [Compound 213, 2,6-difluoro-3-({4-[4-(trifluoromethoxy)phenyl]-5-(trifluoromethyl)-1,3-oxazol-2-yl}methoxy)benzamide] | 0.25 µg/mL (≈ 0.518 µM) | < 1.01 µg/mL | 0.12 µg/mL (≈ 0.249 µM)
21 | NC(=O)c1c(F)ccc(OCCOCCOc2ccc(S(F)(F)(F)(F)F)cc2)c1F [Compound 161, 2,6-difluoro-3-(2-{2-[4-(pentafluoro-lambda~6~-sulfanyl)phenoxy]ethoxy}ethoxy)benzamide] | 1 µg/mL (≈ 2.16 µM) | < 1.01 µg/mL | 2 µg/mL (≈ 4.32 µM)
22 | NC(=O)c1c(F)ccc(OCc2nc(-c3ccc(Cl)cc3)ns2)c1F [Compound 19, 3-{[3-(4-chlorophenyl)-1,2,4-thiadiazol-5-yl]methoxy}-2,6-difluorobenzamide] | 2 µg/mL (≈ 5.24 µM) | < 1.01 µg/mL | 1 µg/mL (≈ 2.62 µM)
23 | NC(=O)c1c(F)ccc(OCc2nc(-c3ccc(Cl)cc3)c(Br)s2)c1F [Compound 12, 3-{[5-bromo-4-(4-chlorophenyl)-1,3-thiazol-2-yl]methoxy}-2,6-difluorobenzamide] | 1 µg/mL (≈ 2.18 µM) | < 1.01 µg/mL | 1 µg/mL (≈ 2.18 µM)
24 | NC(=O)c1c(F)ccc(OCCCCOc2ccc(Cl)cc2)c1F [Compound 127, 3-[4-(4-chlorophenoxy)butoxy]-2,6-difluoro-benzamide] | 0.25 µg/mL (≈ 0.703 µM) | < 1.01 µg/mL | 0.25 µg/mL (≈ 0.703 µM)
25 | NC(=O)c1c(F)ccc(OCc2nc(-c3ccc(S(F)(F)(F)(F)F)cc3)cs2)c1F [Compound 112, 2,6-difluoro-3-({4-[4-(pentafluoro-lambda~6~- sulfanyl)phenyl]-1,3-thiazol-2-yl}methoxy)benzamide] | 0.12 µg/mL (≈ 0.254 µM) | < 1.01 µg/mL | 0.12 µg/mL (≈ 0.254 µM)
26 | CC(=O)OCC(Oc1cccc(C(N)=O)c1F)c1nc(-c2ccc(C(F)(F)F)cc2)c(Br)o1 (stereo not drawn) [Compound 57, 2-{5-bromo-4-[4-(trifluoromethyl)phenyl]-1,3-oxazol-2-yl}-2-(3-carbamoyl-2-fluorophenoxy)ethyl acetate] | 0.5 µg/mL | < 1.01 µg/mL | 0.5 µg/mL
27 | Cn1cccc1CNC(=O)OCC(Oc1ccc(F)c(C(N)=O)c1F)c1nc(-c2ccc(C(F)(F)F)cc2)c(Br)o1 (stereo not drawn) [Compound 80, 2-{5-bromo-4-[4-(trifluoromethyl)phenyl]-1,3-oxazol-2-yl}-2-(3-carbamoyl-2,4-difluorophenoxy)ethyl [(1-methyl-1H-pyrrol-2-yl)methyl]carbamate] | 0.5 µg/mL (≈ 0.777 µM) | < 1.01 µg/mL | 0.5 µg/mL (≈ 0.777 µM)
28 | NC(=O)c1c(F)ccc(OCc2nc(-c3ccc(C(F)(F)F)cc3)cs2)c1F [Compound 16, 2,6-difluoro-3-({4-[4-(trifluoromethyl)phenyl]-1,3-thiazol-2-yl}methoxy)benzamide] | 0.5 µg/mL (≈ 1.21 µM) | < 1.01 µg/mL | 0.5 µg/mL (≈ 1.21 µM)
29 | NC(=O)c1c(F)ccc(OCc2cccc(-c3ccc(Cl)cc3)n2)c1F [Compound 194, 3-{[6-(4-chlorophenyl)pyridin-2-yl]methoxy}-2,6-difluorobenzamide] | 0.5 µg/mL (≈ 1.33 µM) | < 1.01 µg/mL | 0.5 µg/mL (≈ 1.33 µM)
30 | NC(=O)c1c(F)ccc(OCc2nc(-c3ccc(Cl)cc3)cs2)c1F [Compound 11, 3-{[4-(4-chlorophenyl)-1,3-thiazol-2-yl]methoxy}-2,6-difluorobenzamide] | 0.25 µg/mL (≈ 0.657 µM) | < 1.01 µg/mL | 0.25 µg/mL (≈ 0.657 µM)
31 | NC(=O)c1c(F)ccc(OCc2nc(-c3ccc(OC(F)(F)F)cc3)c(Br)s2)c1F [Compound 105, 3-({5-bromo-4-[4-(trifluoromethoxy)phenyl]-1,3-thiazol-2-yl}methoxy)-2,6-difluorobenzamide] | 1 µg/mL (≈ 1.96 µM) | < 1.01 µg/mL | 0.5 µg/mL (≈ 0.982 µM)
32 | NC(=O)c1c(F)ccc(O[C@H](CO)c2nc(-c3ccc(C(F)(F)F)cc3)c(Br)o2)c1F (single isomer, unassigned) [Compound 47] | 0.12 µg/mL (≈ 0.237 µM) | < 1.01 µg/mL | 0.12 µg/mL (≈ 0.237 µM)
33 | NC(=O)c1c(F)ccc(OC(CO)c2nc(-c3ccc(Cl)cc3)c(Br)o2)c1F (stereo not drawn) [Compound 33, 3-{1-[5-bromo-4-(4-chlorophenyl)-1,3-oxazol-2-yl]-2-hydroxyethoxy}-2,6-difluorobenzamide] | 0.5 µg/mL (≈ 1.06 µM) | < 1.01 µg/mL | 0.12 µg/mL (≈ 0.253 µM)
